# From BindingDB's records for doi:10.1016/S1074-5521(00)00004-1 (Pfizer, 2000)
# pIC50: −log10 of the molar value.
# Molecular target: T1, Glycogen phosphorylase, liver form (Homo sapiens, UniProt P06737)
# T1 sequence (P06737 whole entry): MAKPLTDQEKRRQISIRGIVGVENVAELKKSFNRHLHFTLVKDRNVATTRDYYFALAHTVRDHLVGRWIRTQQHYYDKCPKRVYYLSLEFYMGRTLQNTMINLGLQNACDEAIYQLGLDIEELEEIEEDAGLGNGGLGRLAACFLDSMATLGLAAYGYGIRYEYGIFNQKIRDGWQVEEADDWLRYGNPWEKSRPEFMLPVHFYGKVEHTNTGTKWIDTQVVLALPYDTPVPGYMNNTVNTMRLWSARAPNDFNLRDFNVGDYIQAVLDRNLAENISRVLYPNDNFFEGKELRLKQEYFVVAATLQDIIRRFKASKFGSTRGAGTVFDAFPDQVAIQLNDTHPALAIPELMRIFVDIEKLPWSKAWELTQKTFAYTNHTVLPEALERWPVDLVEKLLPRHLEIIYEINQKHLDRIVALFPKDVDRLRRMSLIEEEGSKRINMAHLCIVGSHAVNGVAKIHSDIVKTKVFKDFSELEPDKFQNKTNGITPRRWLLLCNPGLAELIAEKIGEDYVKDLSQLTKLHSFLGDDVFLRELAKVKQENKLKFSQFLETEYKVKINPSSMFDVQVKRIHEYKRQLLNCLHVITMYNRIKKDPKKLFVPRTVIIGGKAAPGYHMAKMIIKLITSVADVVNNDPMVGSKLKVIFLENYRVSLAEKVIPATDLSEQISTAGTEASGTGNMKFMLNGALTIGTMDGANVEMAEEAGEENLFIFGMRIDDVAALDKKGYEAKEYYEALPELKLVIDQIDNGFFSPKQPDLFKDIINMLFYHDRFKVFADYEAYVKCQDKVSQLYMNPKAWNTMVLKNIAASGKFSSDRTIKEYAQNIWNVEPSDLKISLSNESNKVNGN
# Test: Inhibition Activity Assay
# Settings: pH 7.2; 22 °C
# Procedure: Human liver glycogen phsphorylase (HLGP) activity was measured in the direction of glycogen synthesis by the release of phosphate from glucose-1-phosphate.
row,pIC50,SMILES
1,8.22,"Cc1ccc2[nH]c(C(=O)NCCOCCOCCNC(=O)c3cc4cc(Cl)ccc4[nH]3)cc2c1 [CP-526,423]"
2,4.90,COCCNC(=O)c1cc2cc(Cl)ccc2[nH]1
